Source: ChEMBL document CHEMBL1201862, “PubChem BioAssay data set” (2004)
Where “and” joins values, the source holds several entries; their conditions need not be identical. Equal values may be shown once.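 Test compounds were applied to cells in 96-well plates for 48 hours at 5 doses. At the GI50, growth is halved.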 Calls of active or inactive are those of the source. No stated cut-off is given here; in the data, active = GI50 up to about 1.1 µM and inactive = higher.

How the values were obtained:
Assay in all cases: NCI-60 cell line screen, 48 h
Hs-578T = system: Hs-578T
UO-31 = system: UO-31
SR = system: SR
DU-145 = system: DU-145
T47D = system: T47D
M14 = system: M14
EKVX = system: EKVX
OVCAR-4 = system: OVCAR-4
U-251 = system: U-251
A549 = system: A549
SNB-75 = system: SNB-75
NCI/ADR-RES = system: NCI/ADR-RES
TK-10 = system: TK-10
LOX IMVI = system: LOX IMVI
786-0 = system: 786-0
HOP-62 = system: HOP-62
K562 = system: K562
HCC 2998 = system: HCC 2998
UACC-62 = system: UACC-62
COLO 205 = system: COLO 205
RPMI-8226 = system: RPMI-8226
SF-539 = system: SF-539
MOLT-4 = system: MOLT-4
SF-268 = system: SF-268
UACC-257 = system: UACC-257
BT-549 = system: BT-549
NCI-H460 = system: NCI-H460
HCT-15 = system: HCT-15
HOP-92 = system: HOP-92
IGROV-1 = system: IGROV-1
MCF7 = system: MCF7
OVCAR-8 = system: OVCAR-8
Malme-3M = system: Malme-3M
MDA-MB-231 = system: MDA-MB-231
KM12 = system: KM12
HL-60 = system: HL-60
CAKI-1 = system: CAKI-1
SW-620 = system: SW-620
CCRF-CEM = system: CCRF-CEM
SK-OV-3 = system: SK-OV-3
SN12C = system: SN12C
NCI-H23 = system: NCI-H23
SK-MEL-28 = system: SK-MEL-28
MDA-N = system: MDA-N
SK-MEL-5 = system: SK-MEL-5
SNB-19 = system: SNB-19
OVCAR-3 = system: OVCAR-3
NCI-H226 = system: NCI-H226
OVCAR-5 = system: OVCAR-5
PC-3 = system: PC-3
NCI-H522 = system: NCI-H522
HCT-116 = system: HCT-116
SK-MEL-2 = system: SK-MEL-2
SF-295 = system: SF-295
MDA-MB-435 = system: MDA-MB-435
RXF 393 = system: RXF 393
HT-29 = system: HT-29

Structure (SMILES): O=C(CC(=O)Nc1ccccc1)N/N=C/c1cc(/N=N/c2ccc(Br)cc2)ccc1O
- GI50 (Hs-578T): > 10 µM (inactive)
- GI50 (UO-31): 2.42 µM (inactive)
- GI50 (SR): 1.39 µM (inactive)
- GI50 (DU-145): 5.16 µM (inactive)
- GI50 (T47D): 4.38 µM (inactive)
- GI50 (M14): 6.37 µM (inactive)
- GI50 (EKVX): 3.97 µM (inactive)
- GI50 (OVCAR-4): 2.09 µM (inactive)
- GI50 (U-251): 3.61 µM (inactive)
- GI50 (A549): > 10 µM (inactive)
- GI50 (SNB-75): > 10 µM (inactive)
- GI50 (NCI/ADR-RES): 2.88 µM (inactive)
- GI50 (TK-10): 4.2 µM (inactive)
- GI50 (LOX IMVI): 4.28 µM (inactive)
- GI50 (786-0): 4 µM (inactive)
- GI50 (HOP-62): 5.3 µM (inactive)
- GI50 (K562): 2.96 µM (inactive)
- GI50 (HCC 2998): 3.25 µM (inactive)
- GI50 (UACC-62): 2.28 µM (inactive)
- GI50 (COLO 205): 3.93 µM (inactive)
- GI50 (RPMI-8226): 3.68 µM (inactive)
- GI50 (SF-539): 4.05 µM (inactive)
- GI50 (MOLT-4): 1.35 µM (inactive)
- GI50 (SF-268): 4.5 µM (inactive)
- GI50 (UACC-257): 2.08 µM (inactive)
- GI50 (BT-549): > 10 µM (inactive)
- GI50 (NCI-H460): 3.28 µM (inactive)
- GI50 (HCT-15): 3.33 µM
- GI50 (HOP-92): > 10 µM (inactive)
- GI50 (IGROV-1): 4.21 µM (inactive)
- GI50 (MCF7): 2.99 µM (inactive)
- GI50 (OVCAR-8): 3.93 µM (inactive)
- GI50 (Malme-3M): 5.93 µM (inactive)
- GI50 (MDA-MB-231): 3.26 µM (inactive)
- GI50 (KM12): 3.58 µM (inactive)
- GI50 (HL-60): 2.44 µM (inactive)
- GI50 (CAKI-1): 3.61 µM (inactive)
- GI50 (SW-620): 4.84 µM (inactive)
- GI50 (CCRF-CEM): 1.54 µM (inactive)
- GI50 (SK-OV-3): 8.87 µM (inactive)
- GI50 (SN12C): 8.22 µM (inactive)
- GI50 (NCI-H23): 2.6 µM (inactive)
- GI50 (SK-MEL-28): 4.41 µM (inactive)
- GI50 (MDA-N): 3.72 µM (inactive)
- GI50 (SK-MEL-5): 8.79 µM (inactive)

Structure (SMILES): COC(=O)C1OC(O[C@H]2CC[C@]3(C)[C@H]4CC=C5[C@@H]6CC(C)(C)CC[C@]6(C(=O)OC6OCC(O)C(O)C6OC6OC(C)C(OC7OCC(O)C(O)C7O)C(O)C6O)CC[C@@]5(C)[C@]4(C)CC[C@H]3C2(C)C)C(O)C(O)C1O (stereo partly drawn)
- GI50 (SNB-19): 13.6 µM (inactive) and 17.2 µM (inactive)
- GI50 (OVCAR-3): 39.5 µM (inactive) and 42.8 µM (inactive)
- GI50 (Hs-578T): 18.2 µM (inactive) and 20.6 µM (inactive)
- GI50 (UO-31): 13.2 µM (inactive) and 18.9 µM (inactive)
- GI50 (SR): 13.1 µM (inactive) and 10.2 µM (inactive)
- GI50 (DU-145): 18 µM (inactive) and 22.1 µM (inactive)
- GI50 (T47D): 28.2 µM (inactive) and 18.2 µM (inactive)
- GI50 (M14): 15.3 µM (inactive) and 18.2 µM (inactive)
- GI50 (EKVX): 17.1 µM (inactive)
- GI50 (OVCAR-4): 15.8 µM (inactive) and 12.7 µM (inactive)
- GI50 (U-251): 18.4 µM (inactive) and 18.7 µM (inactive)
- GI50 (NCI-H226): 19.7 µM (inactive) and 20.8 µM (inactive)
- GI50 (OVCAR-5): 16.5 µM (inactive) and 20.7 µM (inactive)
- GI50 (A549): 16.9 µM (inactive) and 19.5 µM (inactive)
- GI50 (SNB-75): 16.5 µM (inactive) and 16.1 µM (inactive)
- GI50 (LOX IMVI): 16.4 µM (inactive) and 14.6 µM (inactive)
- GI50 (786-0): 15.7 µM (inactive) and 17.5 µM (inactive)
- GI50 (PC-3): 14.4 µM (inactive) and 15.8 µM (inactive)
- GI50 (HOP-62): 17.9 µM (inactive) and 18.4 µM (inactive)
- GI50 (K562): 25.8 µM (inactive) and 26 µM (inactive)
- GI50 (NCI-H522): 16.1 µM (inactive) and 16.4 µM (inactive)
- GI50 (HCT-116): 17.1 µM (inactive) and 18.4 µM (inactive)
- GI50 (HCC 2998): 11.9 µM (inactive) and 14.2 µM (inactive)
- GI50 (UACC-62): 18 µM (inactive) and 18.2 µM (inactive)
- GI50 (SK-MEL-2): 19.7 µM (inactive) and 17.6 µM (inactive)
- GI50 (COLO 205): 13.1 µM (inactive) and 16.9 µM (inactive)
- GI50 (RPMI-8226): 23.9 µM (inactive) and 18.8 µM (inactive)
- GI50 (MOLT-4): 19.3 µM (inactive) and 18.1 µM (inactive)
- GI50 (SF-268): 17.3 µM (inactive) and 19.6 µM (inactive)
- GI50 (UACC-257): 14 µM (inactive) and 16 µM (inactive)
- GI50 (BT-549): 18.7 µM (inactive) and 19.9 µM (inactive)
- GI50 (NCI-H460): 34.5 µM (inactive) and 20 µM (inactive)
- GI50 (HCT-15): 26.9 µM and 28.8 µM
- GI50 (HOP-92): 16.4 µM (inactive) and 19.9 µM (inactive)
- GI50 (IGROV-1): 24.8 µM (inactive) and 45.8 µM (inactive)
- GI50 (MCF7): 13.5 µM (inactive) and 13 µM (inactive)
- GI50 (OVCAR-8): 21.4 µM (inactive) and 15.2 µM (inactive)
- GI50 (Malme-3M): 15.5 µM (inactive) and 18.4 µM (inactive)
- GI50 (KM12): 15.6 µM (inactive) and 16.2 µM (inactive)
- GI50 (HL-60): 21.2 µM (inactive) and 19.1 µM (inactive)
- GI50 (CAKI-1): 12.9 µM (inactive) and 15.5 µM (inactive)
- GI50 (SW-620): 19.6 µM (inactive) and 21.9 µM (inactive)
- GI50 (CCRF-CEM): 22.6 µM (inactive) and 22.4 µM (inactive)
- GI50 (SF-295): 18.2 µM (inactive) and 17.4 µM (inactive)
- GI50 (MDA-MB-435): 19.1 µM (inactive) and 17.9 µM (inactive)
- GI50 (SK-OV-3): 21.2 µM (inactive) and 21.3 µM (inactive)
- GI50 (SN12C): 13.4 µM (inactive) and 16.4 µM (inactive)
- GI50 (NCI-H23): 15.4 µM (inactive) and 15.8 µM (inactive)
- GI50 (SK-MEL-28): 14.4 µM (inactive) and 16.6 µM (inactive)
- GI50 (RXF 393): 21.1 µM (inactive) and 19.5 µM (inactive)
- GI50 (HT-29): 15.8 µM (inactive) and 16 µM (inactive)
- GI50 (MDA-N): 18.5 µM (inactive) and 15.9 µM (inactive)
- GI50 (SK-MEL-5): 17.9 µM (inactive) and 17.8 µM (inactive)
